Earlier results, collected in patent US12151031B2, “Topical copper tripeptide composition” (YUVAN RESEARCH, INC., priority 2018, dated 2024).

Conditions: in vivo

Elimination half-life: 1.5 to 2 h
Substance: glycyl-histidyl-lysin tripeptide in the form of its Cu Complex [GHK-Cu]
